A word on the IC50: it is the point on the concentration scale where inhibition reaches its midpoint.

SMILES strings stand for the structures. Structures can show the parent of a compound that is named as a salt.

From patent US10980777B2, “Indole derivatives as histone demethylase inhibitors” (Istituto Europeo di Oncologia S.r.l., priority 2017, dated 2021) come the findings set out here.

The subject of assay [1] is Human leukemia MV4-11 cells. The experiment in a line: Cell growth, CellTiter-Fluor cell viability assay, MV4-11. It is filed as cell-based. Conditions: 48 h incubation, read-out: IC50 against human leukemia MV4-11 cells. From the text: (§1) CellTiter-Flor® (Promega) is as a nonlytic, single-reagent-addition fluorescence assay that measures the relative number of living cells in a culture population after experimental manipulation. The CellTiter-Fluor™ Cell Viability Assay measures the conserved and constitutive protease activity within live cells and therefore acts as a marker for cell viability.
(§2) Human leukemia MV4-11 cells, (obtained from the Deutsche Sammlung von Mikroorganismen und Zellkulturen, ACC 102) or NB4 cells, (obtained from the Deutsche Sammlung von Mikroorganismen und Zellkulturen) in exponential growth, were incubated for 48 h with different concentrations of the inhibitors. After 48 h a volume of CellTiter-Fluor® Reagent equal to one fifth of volume of cell culture medium was added. The content was mixed and incubates for at least 90 min at 37° C. degree to obtain a stable signal. The fluorescence was recorded using an excitation wavelength of 360 nm and an emission at 535 nm. The IC50 was calculated using GraphPad Software.

Another assay relates to human leukemia NB4 cells. The experiment in a line: Cell growth, CellTiter-Fluor cell viability assay, NB4. It counts as cell-based. The conditions noted are these: NB-4, 48 h incubation, read-out: IC50 against human leukemia NB4 cells.
Source text: as §1, §2

The target of assay [2] is T1, human recombinant KDM1A/CoREST protein (Homo sapiens, UniProt O60341).
T1 construct: made in house; host or cells: E. coli
Description: Assay of enzyme inhibition of KDM1A (LSD1), TR-FRET. It is filed as biochemical. Conditions: 0.25 nM KDM1A/CoREST, 50 nM H3K4 monomethylated peptide, 20 min at RT; read-out: IC50, KDM1A (LSD1) enzyme inhibition. Here is the method: 2.1 Assay of Enzyme Inhibition of KDM1A (LSD1)
The KDM1A inhibiting activity was determined using a TR-FRET assay (time resolved fluorescence resonance energy transfer, Lance® Ultra Demethylase technology (Perkin Elmer, Waltham, Mass., USA)), which comprises a Europium chelate donor dye (TRF0404, Perkin Elmer, Waltham, Mass., USA) together with ULight™ (TR0102, Perkin Elmer, Waltham, Mass., USA), a small molecular weight acceptor dye with a red-shifted fluorescent emission, and a biotinylated 21 amino acids histone H3-derived monomethylated peptide (H3K4me) [Lys(Me1)4]-Histone H3 (1-21)-GGK(biotin), (64355, Anaspec, Fremont, Calif., USA) as substrate. The intensity of the light emission is proportional to the level of biotinylated reaction product. The complex of human recombinant KDM1A/CoREST protein was produced in E. coli as separate proteins and co-purified as previously described.(Forneris, F. et al. Trends Biochem, Sci, 2008, 33, 181-189) (Forneris, F. et al. J. Biol. Chem. 2007, 282, 20070-20074).
Demethylase Assay conditions: 0.25 nM KDM1A/CoREST protein and compound in 100% DMSO were added in a final volume of 48 μL assay buffer (Tris HCl 50 mM pH 8.8, NaCl 50 mM, DTT 1 mM, Tween-20 0.01% (by volume)) to each well of a 96 well half area flat bottom white plate (3693 Costar, Sigma-Aldrich, St. Louis, M, USA).
Demethylase reaction was started by the addition of 50 nM histone H3K4 monomethylated. After 20 min at RT, 300 μM tranylcypromine (P8511-1G, Sigma-Aldrich, St. Louis, Mo. 63103) was added to stop the reaction.
Detection step conditions: 10 μL of the assay mixture was transferred from the original plate into a 384 well white plate (6007290 OptiPlate™, Perkin Elmer, Waltham, Mass., USA) and 10 μL of the detection Mix containing 2 nM Eu-antibody and 10 nM U-Light-Streptavidin in 1× Lance Detection Buffer (TRF0404, TR0102, CR97100, Perkin Elmer, Waltham, Mass., USA). The resulting mixture was incubated in the dark for 1 h at RT. Then, TR-FRET signal was read by a fluorimeter (Infinite® F200, Tecan, Männedorf, Switzerland) (Excitation 320 nm, Emission 665 nm and 620 nm, delay time 50 μs, window time 100 μs).
IC50 determination: The inhibitor concentrations ranged from 0.025 to 500 μM (serial 1:3 dilutions). The IC50 was calculated using GraphPad Software.

As for `Cn1c(C(=O)c2cn(CCOc3ccc(OC4CCNCC4)cc3)c3ccccc23)cc2sccc21` [Compound 17, (4-methylthieno[3,2-b]pyrrol-5-yl)-[1-[2-[4-(4-piperidyloxy)phenoxy]ethyl]indol-3-yl]methanone hydrochloride], the IC50 in assay [1] was less than 10 µM; in the assay on human leukemia NB4 cells, less than 10 µM; in assay [2] it was less than 0.5 µM.
With `Cn1c(C(=O)c2cn(CCOc3cccc(OCC4CCNCC4)c3)c3ccccc23)cc2sccc21` [Compound 18, (4-methylthieno[3,2-b]pyrrol-5-yl)-[1-[2-[3-(4-piperidylmethoxy)phenoxy]ethyl]indol-3-yl]methanone hydrochloride], the IC50 in assay [1] was less than 10 µM; in the assay on human leukemia NB4 cells, less than 10 µM; in assay [2], less than 0.5 µM.
In the case of `Cn1c(C(=O)c2cn(CCOc3ccc(OCC4CCNCC4)cc3)c3ccccc23)cc2sccc21` [Compound 19, (4-methylthieno[3,2-b]pyrrol-5-yl)-[1-[2-[4-(4-piperidylmethoxy)phenoxy]ethyl]indol-3-yl]methanone hydrochloride], the IC50 in assay [1] is less than 10 µM; in the assay on human leukemia NB4 cells it was less than 10 µM; in assay [2] it was less than 0.5 µM.
